Reference: PubChem BioAssay AID248 (DTP/NCI, 2004)
Where “and” joins values, the source holds several entries; their conditions need not be identical. Equal entries are not always repeated. Toxic doses and inconclusive results are not listed.

Tested on: L1210 leukemia ip in BDF1 mice, survival T/C
Experiment: NCI In Vivo Anticancer Drug Screen. Data for tumor model L1210 Leukemia (intraperitoneal) in B6D2F1 (BDF1) mice
Details: endpoint: mean survival time, higher = longer survival
Outline: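 In this screen, tumor-bearing mice given compound are compared to those given vehicle, and their survival values are reported as a treated-to-control quotient.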

[1] = dose: 100.0 mg/kg/injection, schedule: Q04DX003 (ip), vehicle: Klucel (hydroxypropylcellulose) (HPC)
[2] = dose: 200.0 mg/kg/injection, schedule: Q04DX003 (ip), vehicle: Klucel (hydroxypropylcellulose) (HPC)
[3] = dose: 400.0 mg/kg/injection, schedule: Q04DX003 (ip), vehicle: Klucel (hydroxypropylcellulose) (HPC)
[4] = dose: 100.0 mg/kg/injection, schedule: Q04DX003 (ip), vehicle: saline
[5] = dose: 100.0 mg/kg/injection, schedule: Q01DX001 (ip), vehicle: saline
[6] = dose: 100.0 mg/kg/injection, schedule: Q01DX009 (ip), vehicle: saline with Tween-80
[7] = dose: 200.0 mg/kg/injection, schedule: Q01DX001 (ip), vehicle: saline
[8] = dose: 400.0 mg/kg/injection, schedule: Q01DX001 (ip), vehicle: saline
[9] = dose: 100.0 mg/kg/injection, schedule: Q01DX001 (ip), vehicle: Klucel (hydroxypropylcellulose) (HPC)
[10] = dose: 200.0 mg/kg/injection, schedule: Q01DX001 (ip), vehicle: Klucel (hydroxypropylcellulose) (HPC)
[11] = dose: 400.0 mg/kg/injection, schedule: Q01DX001 (ip), vehicle: Klucel (hydroxypropylcellulose) (HPC)
[12] = dose: 50.0 mg/kg/injection, schedule: Q01DX001 (ip), vehicle: carboxymethylcellulose (CMC)
[13] = dose: 100.0 mg/kg/injection, schedule: Q01DX001 (ip), vehicle: carboxymethylcellulose (CMC)
[14] = dose: 50.0 mg/kg/injection, schedule: Q01DX001 (ip), vehicle: saline
[15] = dose: 100.0 mg/kg/injection, schedule: Q01DX009 (ip), vehicle: saline
[16] = dose: 100.0 mg/kg/injection, schedule: Q01DX001 (ip), vehicle: other
[17] = dose: 200.0 mg/kg/injection, schedule: Q01DX001 (ip), vehicle: other

## Cc1cccc(C)c1NC(=O)c1c(Cl)c(Cl)c(Cl)c(Cl)c1C(=O)O
dose: 25.0 mg/kg/injection, schedule: Q01DX009 (ip), vehicle: Klucel (hydroxypropylcellulose) (HPC)
  T/C: 95 % of control
dose: 50.0 mg/kg/injection, schedule: Q01DX009 (ip), vehicle: Klucel (hydroxypropylcellulose) (HPC)
  T/C: 87 % of control
dose: 100.0 mg/kg/injection, schedule: Q01DX009 (ip), vehicle: Klucel (hydroxypropylcellulose) (HPC)
  T/C: 94 % of control and 88 % of control
[1]
  T/C: 102 % of control
[2]
  T/C: 102 % of control
[3]
  T/C: 107 % of control

## NC(=O)N(CCO)CCO
[4]
  T/C: 110 % of control
dose: 200.0 mg/kg/injection, schedule: Q04DX003 (ip), vehicle: saline
  T/C: 96 % of control
dose: 400.0 mg/kg/injection, schedule: Q04DX003 (ip), vehicle: saline
  T/C: 104 % of control

## CC(C)=CCC1=C(O)C2=C(CCCC2)C(=O)C1=O
dose: 100.0 mg/kg/injection, schedule: Q01DX001 (ip), vehicle: water
  T/C: 102 % of control
dose: 200.0 mg/kg/injection, schedule: Q01DX001 (ip), vehicle: water
  T/C: 106 % of control
dose: 400.0 mg/kg/injection, schedule: Q01DX001 (ip), vehicle: water
  T/C: 93 % of control

## O=C(O)c1cscn1
[5]
  T/C: 93 % of control
[6]
  T/C: 101 % of control and 90 % of control
dose: 100.0 mg/kg/injection, schedule: Q04DX002 (ip), vehicle: saline with Tween-80
  T/C: 97 % of control and 107 % of control
dose: 100.0 mg/kg/injection, schedule: Q04DX003 (ip), vehicle: saline with Tween-80
  T/C: 108 % of control
[7]
  T/C: 103 % of control
dose: 200.0 mg/kg/injection, schedule: Q01DX009 (ip), vehicle: saline with Tween-80
  T/C: 95 % of control and 97 % of control
dose: 200.0 mg/kg/injection, schedule: Q04DX002 (ip), vehicle: saline with Tween-80
  T/C: 97 % of control and 106 % of control
dose: 200.0 mg/kg/injection, schedule: Q04DX003 (ip), vehicle: saline with Tween-80
  T/C: 98 % of control
[8]
  T/C: 93 % of control
dose: 400.0 mg/kg/injection, schedule: Q01DX009 (ip), vehicle: saline with Tween-80
  T/C: 92 % of control
dose: 400.0 mg/kg/injection, schedule: Q04DX002 (ip), vehicle: saline with Tween-80
  T/C: 102 % of control and 92 % of control

## Nc1ccc(I)c([N+](=O)[O-])c1
dose: 100.0 mg/kg/injection, schedule: Q04DX003 (ip), vehicle: acetone
  T/C: 87 % of control
dose: 200.0 mg/kg/injection, schedule: Q04DX003 (ip), vehicle: acetone
  T/C: 92 % of control
dose: 400.0 mg/kg/injection, schedule: Q04DX003 (ip), vehicle: acetone
  T/C: 101 % of control

## O=C(O)C1C2CC=CCC21 (stereo not given)
dose: 25.0 mg/kg/injection, schedule: Q01DX001 (ip), vehicle: Klucel (hydroxypropylcellulose) (HPC)
  T/C: 102 % of control
dose: 50.0 mg/kg/injection, schedule: Q01DX001 (ip), vehicle: Klucel (hydroxypropylcellulose) (HPC)
  T/C: 101 % of control
[9]
  T/C: 93 % of control and 94 % of control
[1]
  T/C: 101 % of control
[10]
  T/C: 93 % of control
[2]
  T/C: 98 % of control
[11]
  T/C: 97 % of control
[3]
  T/C: 102 % of control

## NNS(=O)(=O)c1ccccc1
dose: 25.0 mg/kg/injection, schedule: Q04DX003 (ip), vehicle: saline
  T/C: 101 % of control
[12]
  T/C: 101 % of control
dose: 50.0 mg/kg/injection, schedule: Q04DX003 (ip), vehicle: saline
  T/C: 101 % of control
[13]
  T/C: 92 % of control
[4]
  T/C: 103 % of control

## CC(C)Cc1nc2c([nH]1)c(=O)n(C)c(=O)n2C
[14]
  T/C: 96 % of control
[5]
  T/C: 104 % of control
[7]
  T/C: 98 % of control

## CCC(=O)OC(CCN(C)C)(Cc1ccccc1)c1ccccc1 (stereo not given)
dose: 25.0 mg/kg/injection, schedule: Q01DX009 (ip), vehicle: saline
  T/C: 100 % of control
dose: 50.0 mg/kg/injection, schedule: Q01DX009 (ip), vehicle: saline
  T/C: 95 % of control
[15]
  T/C: 101 % of control
[4]
  T/C: 93 % of control

## CC(c1ccccc1)n1cnc2c(=S)nc[nH]c21 (stereo not given)
[5]
  T/C: 92 % of control
[7]
  T/C: 95 % of control
[8]
  T/C: 103 % of control

## Oc1ccccc1C1N(Cc2ccc(N(CCCl)CCCl)cc2Cl)CCCN1Cc1ccc(N(CCCl)CCCl)cc1Cl
[12]
  T/C: 96 % of control
[13]
  T/C: 90 % of control
dose: 200.0 mg/kg/injection, schedule: Q01DX001 (ip), vehicle: carboxymethylcellulose (CMC)
  T/C: 94 % of control
dose: 400.0 mg/kg/injection, schedule: Q01DX001 (ip), vehicle: carboxymethylcellulose (CMC)
  T/C: 102 % of control

## O=c1[nH]nc(SCc2ccccc2)c(=S)[nH]1
[16]
  T/C: 119 % of control
dose: 177.0 mg/kg/injection, schedule: Q01DX001 (ip), vehicle: other
  T/C: 104 % of control
[17]
  T/C: 156 % of control
dose: 200.0 mg/kg/injection, schedule: Q01DX005 (ip), vehicle: other
  T/C: 92 % of control
dose: 266.0 mg/kg/injection, schedule: Q01DX001 (ip), vehicle: other
  T/C: 101 % of control
dose: 300.0 mg/kg/injection, schedule: Q01DX005 (ip), vehicle: other
  T/C: 95 % of control

## S=C(NCCCN1Cc2ccccc2C1)Nc1ccccc1
[5]
  T/C: 96 % of control
[7]
  T/C: 104 % of control
[8]
  T/C: 96 % of control

## CCOC(=O)Sc1ccccc1
[16]
  T/C: 102 % of control
[17]
  T/C: 94 % of control

## Cc1c(/C=N/N=c2/[nH][nH]/c(=N/N=C/c3c(C)n(C)n(-c4ccccc4)c3=O)c3ccccc23)c(=O)n(-c2ccccc2)n1C
[14]
  T/C: 93 % of control
[5]
  T/C: 106 % of control
[7]
  T/C: 114 % of control

## CCOC(=O)CNCc1ccc(Cl)c(Cl)c1
dose: 50.0 mg/kg/injection, schedule: Q04DX003 (ip), vehicle: water
  T/C: 106 % of control
dose: 100.0 mg/kg/injection, schedule: Q04DX003 (ip), vehicle: water
  T/C: 95 % of control and 106 % of control
dose: 200.0 mg/kg/injection, schedule: Q04DX003 (ip), vehicle: water
  T/C: 87 % of control and 92 % of control

## Cc1ccc(S(=O)(=O)OCC(F)(F)C(F)(F)C(F)(F)COS(=O)(=O)c2ccc(C)cc2)cc1
dose: 75.0 mg/kg/injection, schedule: Q04DX002 (ip), vehicle: saline with Tween-80
  T/C: 88 % of control
dose: 150.0 mg/kg/injection, schedule: Q04DX002 (ip), vehicle: saline with Tween-80
  T/C: 91 % of control
dose: 300.0 mg/kg/injection, schedule: Q04DX002 (ip), vehicle: saline with Tween-80
  T/C: 95 % of control

## CCOC(=O)COc1cc(Cl)ccn1
dose: 100.0 mg/kg/injection, schedule: Q04DX002 (ip), vehicle: Klucel (hydroxypropylcellulose) (HPC)
  T/C: 110 % of control
dose: 200.0 mg/kg/injection, schedule: Q04DX002 (ip), vehicle: Klucel (hydroxypropylcellulose) (HPC)
  T/C: 104 % of control
dose: 400.0 mg/kg/injection, schedule: Q04DX002 (ip), vehicle: Klucel (hydroxypropylcellulose) (HPC)
  T/C: 104 % of control

## Cn1cncc1CC1COC(=O)C1C(O)c1ccccc1 (stereo not given)
[5]
  T/C: 108 % of control
[7]
  T/C: 107 % of control

## O=C(NC/C(Br)=C/Br)c1ccccc1
[1]
  T/C: 96 % of control
[2]
  T/C: 100 % of control
[3]
  T/C: 96 % of control

## C(C#CC1CCCCC1)#CC1CCCCC1
[15]
  T/C: 94 % of control
dose: 200.0 mg/kg/injection, schedule: Q01DX009 (ip), vehicle: saline
  T/C: 91 % of control
dose: 400.0 mg/kg/injection, schedule: Q01DX009 (ip), vehicle: saline
  T/C: 94 % of control

## CN(CC(=O)O)Cc1oc(CO)cc(=O)c1O
[5]
  T/C: 110 % of control
[7]
  T/C: 95 % of control
[8]
  T/C: 95 % of control

## ClP1(c2ccccc2)=NP(Cl)(c2ccccc2)=NP(Cl)(c2ccccc2)=NP(Cl)(c2ccccc2)=N1 (stereo not given)
dose: 50.0 mg/kg/injection, schedule: Q01DX009 (ip), vehicle: saline with Tween-80
  T/C: 97 % of control
[6]
  T/C: 89 % of control

## CC(C)C(C)/C=C/C(C)C1CCC2C3CC=C4CC(O)CCC4(C)C3CCC12C (stereo not given)
[9]
  T/C: 97 % of control
[10]
  T/C: 101 % of control
[11]
  T/C: 90 % of control

## CN(C)CCN(C)N=Nc1c(-c2cccs2)n[nH]c1C(F)(F)F
dose: 75.0 mg/kg/injection, schedule: Q01DX001 (ip), vehicle: other
  T/C: 94 % of control
dose: 150.0 mg/kg/injection, schedule: Q01DX001 (ip), vehicle: other
  T/C: 98 % of control
dose: 300.0 mg/kg/injection, schedule: Q01DX001 (ip), vehicle: other
  T/C: 93 % of control
